Experimental data as given in patent US6897239B1, “Use of misoprostol and/or metabolites of misoprostol for treating sexual dysfunction in women” (Lavipharm S.A., priority 1998, dated 2005).
Read-outs that look alike come from different tables or passages of the source.

Key:
[1] = tested on: women with sexual dysfunction; experiment: external application of misoprostol to the clitoris or/and to the vagina; type: in vivo; conditions: for local vasodilation after external application: used externally to the clitoris or/and to the vagina
Source text: Because of the local vasodilation is caused tumescence of the clitoris, intence bleeding of the vagina and feeling of sexual desire. Simultaneously, in women with anorgasmia of various causes, promote after masturbation or sexual intercourse, the coming of orgasm.
Method of application: 0.1 (or more, depending on responce) are applied to the clitoris or/and to the vagina.
(§1) As had already been mentioned, misoprostol is an extremely hydrophile molecule compared with other prostaglandins of E1 series (e.g. with alprostadil which can be dissolved in alcohol but her solubility in water is only 8000 mcg/100 ml at 35° C.).

patients = conditions: cited from earlier work
solubility in water = type: physicochemical
Description: as §1

[2] = at 35° C.; cited from earlier work

SMILES	local vasodilation after external application [1]	carcinogenic or teratogenic effect (patients; in vivo)	effect on uterus (patients; in vivo)	undesirable effects in oral therapy (patients; oral therapy)	solubility in water (solubility in water)	time of appearance of the result ([1]; external application of the example forms)	systematic undesirable effects ([1]; high once only doses >1000 mcg to the clitoris or to the vagina)	misoprostol action in the presence of Polysorbate "80" ([1]; in the presence of Polysorbate "80")	change of misoprostol activity as a function of pH ([1]; pH of the pharmacotechnical form)	undesirable effects in the presence of a-cyclodextrine ([1]; presence of a-cyclodextrine)	solubility in water [2]
CCCCC(C)(O)C/C=C/[C@H]1[C@H](O)CC(=O)[C@@H]1CCCCCCC(=O)O (mixture of isomers) [misoprostol acid]	Equally strong topical vasodilation	–	–	–	–	–	–	–	–	–	–
CCCCC(C)(O)C/C=C/[C@H]1[C@H](O)CC(=O)[C@@H]1CCCCCCC(=O)OC (mixture of isomers) [Misoprostol, (11a,13E)-(±)-11,16-Dihydroxy-16-methyl-9-oxoprost-13-en-1-oic acid methyl ester]	strong local vasodilation	hasn't been accused	irritation of the smooth uterine fibbers	male impotence	can be dissolved in water	20 to 40 min	shudder, feeling of hard ship, excitement and diarrhea	important reduction or/and neutralization	No significant changes	reduces the undesirable effects	–
CCCCC[C@H](O)/C=C/[C@H]1[C@H](O)CC(=O)[C@@H]1CCCCCCC(=O)O [alprostadil]	–	–	–	–	–	–	–	–	–	–	8000 mcg/100 ml
